Data reported in ChEMBL document CHEMBL5143684, “Design, synthesis and biological evaluation of novel 5-methyl-2,4,5,6-tetrahydropyrrolo[3,4-c]pyrazole derivatives as potent potassium-competitive acid blockers” (Bioorg Med Chem, 2022).

Legend:
[1] = Inhibition of rabbit stomach K+ stimulated H(+)/K(+) ATPase activity incubated for 30 mins in presence of ATP and KCl by malachite green reagent based assay; format: tissue-based, Oryctolagus cuniculus
[2] = AUC (0 to infinity) in Sprague-Dawley rat at 2 mg/kg, iv by LC-MS/MS analysis; format: ADME, organism-based; parameters: time infinity, dose 2 mg/kg, route iv; conditions: in vivo
[3] = AUC (0 to infinity) in Sprague-Dawley rat at 8 mg/kg, po by LC-MS/MS analysis; format: ADME, organism-based; parameters: time infinity, dose 8 mg/kg, route po; conditions: in vivo
[4] = Cmax in Sprague-Dawley rat at 8 mg/kg, po by LC-MS/MS analysis; format: ADME, organism-based; parameters: dose 8 mg/kg, route po; conditions: in vivo
[5] = Terminal half life in Sprague-Dawley rat at 2 mg/kg, iv by LC-MS/MS analysis; format: ADME, organism-based; conditions: in vivo, read-out: beta t1/2 (converted)
[6] = Elimination half life in Sprague-Dawley rat at 8 mg/kg, po by LC-MS/MS analysis; format: ADME, organism-based; conditions: in vivo, read-out: beta t1/2 (converted)
[7] = Oral bioavailability in Sprague-Dawley rat at 8 mg/kg by LC-MS/MS analysis; format: ADME, organism-based; conditions: in vivo
[8] = Inhibition of gastric acid secretion in histamine induced Sprague-Dawley rat at 1 mg/kg, iv pretreated with compound for 15 mins followed by histamine dihydrochloride injection and measured after 3 hrs; format: functional; conditions: 3.25 h, time 195 min
[9] = Half life in Sprague-Dawley rat at 0.75 mg/kg, iv measured up to 24 hrs; format: ADME, organism-based; conditions: in vivo
[10] = Cmax in Sprague-Dawley rat at 2 mg/kg, po; format: ADME, organism-based; parameters: dose 2 mg/kg, route po; conditions: in vivo
[11] = AUC (0 to infinity) in Sprague-Dawley rat at 0.75 mg/kg, iv measured up to 24 hrs; format: ADME, organism-based; parameters: dose 0.75 mg/kg, time < 24 hrs, route iv; conditions: in vivo
[12] = Half life in Sprague-Dawley rat at 2 mg/kg, po; format: ADME, organism-based; conditions: in vivo
[13] = Oral bioavailability in Sprague-Dawley rat at 2 mg/kg; format: ADME, organism-based; conditions: in vivo
[14] = AUC (0 to infinity) in Sprague-Dawley rat at 2 mg/kg, po; format: ADME, organism-based; parameters: time infinity, dose 2 mg/kg, route po; conditions: in vivo

Compound: CN1Cc2nn(Cc3cccc(OCCC(N)=O)c3)c(-c3ccccc3F)c2C1
- IC50 [1]: 389 nM

Compound: CN1Cc2nn(Cc3cccc(-c4cccc(C(N)=O)c4)c3)c(-c3ccccc3F)c2C1
- AUC(0-inf) [2]: 520 ng·h/mL
- AUC(0-inf) [3]: 341 ng·h/mL
- Cmax [4]: 150 ng/mL
- half-life [5]: 0.49 h
- half-life [6]: 0.8 h
- bioavailability [7]: 16.4%
- IC50 [1]: 60.5 nM
- inhibition in vivo at 1 mg/kg [8]: 86.8%

Compound: CN1Cc2nn(Cc3cccc(OCC(N)=O)c3)c(-c3ccccc3F)c2C1
- IC50 [1]: 747 nM

Compound: CN1Cc2nn(S(=O)(=O)c3ccccc3)c(-c3ccccc3F)c2C1
- IC50 [1]: 1030 nM

Compound: CC(C)Oc1ccc(-c2c3c(nn2Cc2cccc(O)c2)CN(C)C3)cc1
- IC50 [1]: > 10000 nM

Compound: CN1Cc2nn(Cc3cccc(O)c3)c(-c3ccccc3Cl)c2C1
- IC50 [1]: 104 nM

Compound: CN1Cc2nn(Cc3cccc(N4CCOCC4)c3)c(-c3ccccc3F)c2C1
- IC50 [1]: 410 nM

Compound: CN1Cc2nn(Cc3cccc(O)c3)c(-c3ccccc3)c2C1
- IC50 [1]: 1850 nM

Compound: CN1Cc2nn(Cc3cccnc3)c(-c3ccccc3F)c2C1
- IC50 [1]: 674 nM

Compound: CN1Cc2nn(Cc3cccc(O)c3)c(-c3ccccc3F)c2C1
- IC50 [1]: 77.3 nM
- inhibition in vivo at 1 mg/kg [8]: 35.6%

Compound: CN1Cc2nn(Cc3cccc(-c4cccc(N(C)C)c4)c3)c(-c3ccccc3F)c2C1
- IC50 [1]: 313 nM

Compound: CN1Cc2nn(Cc3cccc(-c4cccc(F)c4)c3)c(-c3ccccc3F)c2C1
- IC50 [1]: 328 nM

Compound: CN1Cc2nn(Cc3cccc(O)c3)c(-c3ccccc3CO)c2C1
- IC50 [1]: > 10000 nM

Compound: CNCc1cc(-c2ccccc2F)n(S(=O)(=O)c2cccnc2)c1 [VONOPRAZAN]
- half-life [9]: 1.2 h
- Cmax [10]: 17 ng/mL
- AUC(0-inf) [11]: 99 ng·h/mL
- half-life [12]: 1.3 h
- bioavailability [13]: 10%
- IC50 [1]: 49.1 nM
- AUC(0-inf) [14]: 27 ng·h/mL
- inhibition in vivo at 1 mg/kg [8]: 91%

Compound: CN1Cc2nn(Cc3ccoc3)c(-c3ccccc3F)c2C1
- IC50 [1]: 3200 nM

Compound: CN1Cc2nn(Cc3cccc(F)c3)c(-c3ccccc3F)c2C1
- IC50 [1]: 342 nM

Compound: CN1Cc2nn(Cc3cc4ccccc4o3)c(-c3ccccc3F)c2C1
- IC50 [1]: 4300 nM

Compound: CN1Cc2nn(Cc3cccc(-c4ccc(F)cc4)c3)c(-c3ccccc3F)c2C1
- IC50 [1]: 340 nM

Compound: COc1cccc(Cn2nc3c(c2-c2ccccc2F)CN(C)C3)c1
- IC50 [1]: 290 nM

Compound: CN1Cc2c(-c3ccccc3F)nn(S(=O)(=O)c3ccccc3)c2C1
- IC50 [1]: > 10000 nM

Compound: CN1Cc2nn(Cc3cccc(O)c3)c(-c3cccc(Cl)c3)c2C1
- IC50 [1]: 6350 nM

Compound: CN1Cc2nn(Cc3cccc(-c4ccccc4F)c3)c(-c3ccccc3F)c2C1
- IC50 [1]: 376 nM

Compound: CN1Cc2nn(Cc3ccsc3)c(-c3ccccc3F)c2C1
- IC50 [1]: 2160 nM

Compound: CN1Cc2nn(Cc3cccc(N)c3)c(-c3ccccc3F)c2C1
- IC50 [1]: 894 nM

Compound: CN1Cc2nn(Cc3cccc(Cl)c3)c(-c3ccccc3F)c2C1
- IC50 [1]: 354 nM

Compound: CN1Cc2nn(Cc3cccc(OCCC(=O)O)c3)c(-c3ccccc3F)c2C1
- IC50 [1]: 1840 nM

Compound: CN1Cc2nn(Cc3cccc(-c4cccc(C(F)(F)F)c4)c3)c(-c3ccccc3F)c2C1
- IC50 [1]: 440 nM

Compound: CN1Cc2nn(Cc3ccc(F)cc3)c(-c3ccccc3F)c2C1
- IC50 [1]: 585 nM

Compound: CN1Cc2nn(Cc3cccc(O)c3)c(-c3cccnc3)c2C1
- IC50 [1]: 4170 nM

Compound: CN1Cc2nn(Cc3ccccc3F)c(-c3ccccc3F)c2C1
- IC50 [1]: 814 nM

Compound: CN1Cc2nn(Cc3cccc([N+](=O)[O-])c3)c(-c3ccccc3F)c2C1
- IC50 [1]: 140 nM

Compound: CN1Cc2nn(Cc3cccc(O)c3)c(-c3cccc(O)c3)c2C1
- IC50 [1]: 1240 nM

Compound: CN1Cc2nn(Cc3cccc(O)c3)c(-c3ccc(O)cc3)c2C1
- IC50 [1]: 3580 nM

Compound: Cc1ccc(-c2c3c(nn2Cc2cccc(O)c2)CN(C)C3)c(F)c1
- IC50 [1]: 416 nM

Compound: CN1Cc2nn(Cc3cccc(-c4cccc(C#N)c4)c3)c(-c3ccccc3F)c2C1
- IC50 [1]: 396 nM

Compound: CN1Cc2nn(S(=O)(=O)c3cccnc3)c(-c3ccccc3F)c2C1
- IC50 [1]: 1100 nM

Compound: CN1Cc2nn(Cc3ccccc3)c(-c3ccccc3F)c2C1
- IC50 [1]: 861 nM

Compound: CN1Cc2nn(Cc3cccc(-c4cccc(S(C)(=O)=O)c4)c3)c(-c3ccccc3F)c2C1
- IC50 [1]: 129 nM

Compound: COC(=O)c1ccccc1-c1c2c(nn1Cc1cccc(O)c1)CN(C)C2
- IC50 [1]: > 10000 nM

Compound: CN1Cc2nn(Cc3cccc(O)c3)c(-c3cccnc3F)c2C1
- IC50 [1]: 488 nM

Compound: CN1Cc2cc(S(=O)(=O)c3ccccc3)n(-c3ccccc3F)c2C1
- IC50 [1]: 2110 nM

Compound: Cc1ccccc1-c1c2c(nn1Cc1cccc(O)c1)CN(C)C2
- IC50 [1]: 97.5 nM
